The values below come from US7439386B2, “Therapeutic substituted cyclopentanones” (Allergan, Inc., priority 2005, dated 2008).

The target of one data set is T1, EP2 receptor (Homo sapiens, UniProt P43116).
T1 construct: expressed in transfected cells; membrane fraction
Put plainly: Radioligand binding, EP2 receptor. The conditions noted are these: [3H]PGE2 competition, HEK-293 membranes. How it is done:
(§1) HEK-293 cells stably expressing the human or feline FP receptor, or EP1, EP2, or EP4 receptors are washed with TME buffer, scraped from the bottom of the flasks, and homogenized for 30 sec using a Brinkman PT 10/35 polytron. TME buffer is added to achieve a final 40 ml volume in the centrifuge tubes (the composition of TME is 100 mM TRIS base, 20 mM MgCl2, […]; 10N HCl is added to achieve a pH of 7.4).
(§2) The cell homogenate is centrifuged at 19000 r.p.m. for 20 min at 4° C. using a Beckman Ti-60 rotor. The resultant pellet is resuspended in TME buffer to give a final 1 mg/ml protein concentration, as determined by Biorad assay. Radioligand binding competition assays vs. [^3H—]17 phenyl PGF2α (5 nM) are performed in a 100 μl volume for 60 min. Binding reactions are started by adding plasma membrane fraction. The reaction is terminated by the addition of 4 ml ice-cold TRIS-HCl buffer and rapid filtration through glass fiber GF/B filters using a Brandel cell harvester. The filters are washed 3 times with ice-cold buffer and oven dried for one hour. Non-specific binding is determined with 10 uM unlabeled 17 phenyl PGF2α.
(§3) [^3H—] PGE2 (5 nM; specific activity 180 Ci mmol) is used as the radioligand for EP receptors. Binding studies employing EP1, EP2, EP3, EP4 are performed in duplicate in at least three separate experiments. A 200 μl assay volume is used. Incubations are for 60 min at 25° C. and are terminated by the addition of 4 ml of ice-cold 50 mM TRIS-HCl, followed by rapid filtration through Whatman GF/B filters and three additional 4 ml washes in a cell harvester (Brandel). Non-specific binding is determined with 10^−5M of unlabeled PGE2.

The next data set addresses T2, hEP2/Gqs5 (Homo sapiens, UniProt P43116).
T2 construct: expressed in transfected cells
Put plainly: FLIPR calcium signal, hEP2/Gqs5. Conditions: HEK-293(EBNA) cells, read-out: EP2 Ca2+ EC50. The class given is cell-based. How it is done:
(§4) HEK-293(EBNA) cells, stably expressing one type or subtype of recombinant human prostaglandin receptors (prostaglandin receptors expressed: hDP/Gqs5; hEP1; hEP2/Gqs5; hEP3A/Gqi5; hEP4/Gqs5; hFP; hIP; hTP), are cultured in 100 mm culture dishes in high-glucose DMEM medium containing 10% fetal bovine serum, 2 mM 1-glutamine, 250 μg/ml geneticin (G418) and 200 μg/ml hygromycin B as selection markers, and 100 units/ml penicillin G, 100 μg/ml streptomycin and 0.25 μg/ml amphotericin B.
(§5) Cells are seeded at a density of 5×10^4 cells per well in Biocoat® Poly-D-lysine-coated black-wall, clear-bottom 96-well plates (Becton-Dickinson) and allowed to attach overnight in an incubator at 37° C. Cells are then washed two times with HBSS-HEPES buffer (Hanks Balanced Salt Solution without bicarbonate and phenol red, 20 mM HEPES, pH 7.4) using a Denley Cellwash plate washer (Labsystems). After 45 minutes of dye-loading in the dark, using the calcium-sensitive dye Fluo-4 AM at a final concentration of 2 μM, plates are washed four times with HBSS-HEPES buffer to remove excess dye leaving 100 μl in each well. Plates are re-equilibrated to 37° C. for a few minutes.
(§6) Cells are excited with an Argon laser at 488 nm, and emission is measured through a 510-570 nm bandwidth emission filter (FLIPR™, Molecular Devices, Sunnyvale, Calif.). Drug solution is added in a 50 μl volume to each well to give the desired final concentration. The peak increase in fluorescence intensity is recorded for each well. On each plate, four wells each serve as negative (HBSS-HEPES buffer) and positive controls (standard agonists: BW245C (hDP); PGE2 (hEP1; hEP2/Gqs5; hEP3A/Gqi5; hEP4/Gqs5); PGF2α (hFP); carbacyclin ([…]); U-46619 (hTP), depending on receptor). The peak fluorescence change in each drug-containing well is then expressed relative to the controls.
(§7) Compounds are tested in a high-throughput (HTS) or concentration-response (CoRe) format. […]

A further data set has as its target T3, EP4 receptor (Homo sapiens, UniProt P35408).
T3 construct: expressed in transfected cells; membrane fraction
Put plainly: Radioligand binding, EP4 receptor. The conditions noted are these: [3H]PGE2 competition, HEK-293 membranes. How it is done: as §1, §2, §3

For a further data set, the target named is T4, hEP4/Gqs5 (Homo sapiens, UniProt P35408).
T4 construct: expressed in transfected cells
Put plainly: FLIPR calcium signal, hEP4/Gqs5. The data set is classed as cell-based. The conditions noted are these: HEK-293(EBNA) cells, read-out: EP4 Ca2+ EC50. How it is done: as §4, §5, §6
Compounds are tested in a high-throughput (HTS) or concentration-response (CoRe) format. In the HTS format, forty-four compounds per plate are examined in duplicates at a concentration of 10^−5 M. To generate concentration-response curves, four compounds per plate are tested in duplicates in a concentration range between 10^−5 and 10^−11 M. The duplicate values are averaged. In either, HTS or CoRe format each compound is tested on at least 3 separate plates using cells from different passages to give an n≧3.

In a further data set the target is T5, hEP3A/Gqi5 (Homo sapiens, UniProt P43115).
T5 construct: expressed in transfected cells
T5 sequence (P43115 1-390): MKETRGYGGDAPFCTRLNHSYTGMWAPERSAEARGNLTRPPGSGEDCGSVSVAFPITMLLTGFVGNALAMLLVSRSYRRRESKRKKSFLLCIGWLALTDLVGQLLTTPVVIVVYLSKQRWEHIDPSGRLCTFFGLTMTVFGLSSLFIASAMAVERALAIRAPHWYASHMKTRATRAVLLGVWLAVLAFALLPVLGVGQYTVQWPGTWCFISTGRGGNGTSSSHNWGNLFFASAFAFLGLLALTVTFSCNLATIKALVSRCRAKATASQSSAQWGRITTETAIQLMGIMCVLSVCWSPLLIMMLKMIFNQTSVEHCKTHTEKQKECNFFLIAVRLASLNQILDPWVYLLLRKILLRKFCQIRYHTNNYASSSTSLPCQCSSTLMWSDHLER
Put plainly: FLIPR calcium signal, hEP3A/Gqi5. Conditions: HEK-293(EBNA) cells, read-out: OTHER RECEPTORS Ca2+ EC50: EP3. The data set is classed as cell-based. How it is done: as §4, §5, §6, §7

Data set [1] deals with Beagle dogs. Put plainly: Intraocular pressure in dogs (pneumatonometry). The data set is classed as in vivo. The conditions noted are these: 0.005% topical 25 μL drop, 5 day study. How it is done:
(§8) Intraocular pressure studies in dogs involved pneumatonometry performed in conscious, Beagle dogs of both sexes (10-15 kg). The animals remained conscious throughout the study and were gently restrained by hand. Drugs were administered topically to one eye as a 25 μL volume drop, the other eye received 25 μL vehicle (0.1% polysorbate 80:10 mM TRIS) as a control. Proparacaine (0.1%) was used for corneal anesthesia during tonometry. Intraocular pressure was determined just before drug administration and at 2, 4 and 6 hr thereafter on each day of the 5 day study. Drug was administered immediately after the first IOP reading.

In data set [2] the test system is Beagle dogs. Put plainly: Ocular surface hyperemia in dogs. Conditions: 0.005% topical, score 0.5 trace, 1 mild, 2 moderate, 3 severe. The data set is classed as in vivo. How it is done: as §8
(§9) Ocular surface hyperemia was visually assessed and scored according to a system typically used clinically.
(§10) Ocular surface hyperemia was evaluated at the same time points as intraocular pressure measurement. It should be noted that untreated dog eyes frequently have a pink/red tone. Thus, values of trace or even mild are not necessarily out of the normal range. A similar procedure was used to determine rabbit hyperemia.

The subject of the next data set is cynomolgus monkeys. Put plainly: Intraocular pressure in cynomolgus monkeys. The class given is in vivo. Conditions: 0.005% topical, single dose. How it is done:
as §8
An analogous procedure was carried out with cynomolgus monkeys with measurements at 2, 4, 6, and 24 hours after a single dose.

The test system of the next data set is rabbit. Put plainly: Ocular surface hyperemia in rabbits. The data set is classed as in vivo. The conditions noted are these: 0.005%, score 0.5 trace, 1 mild, 2 moderate, 3 severe. How it is done:
as §9, §10

The structures appear in SMILES notation. Some results are limits rather than exact numbers.

T1 sequence (P43116 whole entry): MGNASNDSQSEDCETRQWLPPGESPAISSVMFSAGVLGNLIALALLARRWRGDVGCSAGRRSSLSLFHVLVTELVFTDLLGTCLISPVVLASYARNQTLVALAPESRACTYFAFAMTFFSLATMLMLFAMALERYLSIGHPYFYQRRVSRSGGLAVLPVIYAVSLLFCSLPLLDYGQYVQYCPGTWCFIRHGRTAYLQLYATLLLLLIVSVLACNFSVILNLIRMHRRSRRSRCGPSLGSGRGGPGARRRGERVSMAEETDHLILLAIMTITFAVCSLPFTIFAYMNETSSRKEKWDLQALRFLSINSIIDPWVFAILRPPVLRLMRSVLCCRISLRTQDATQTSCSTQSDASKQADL
T2 sequence (P43116 whole entry): as above
T4 sequence (P35408 whole entry): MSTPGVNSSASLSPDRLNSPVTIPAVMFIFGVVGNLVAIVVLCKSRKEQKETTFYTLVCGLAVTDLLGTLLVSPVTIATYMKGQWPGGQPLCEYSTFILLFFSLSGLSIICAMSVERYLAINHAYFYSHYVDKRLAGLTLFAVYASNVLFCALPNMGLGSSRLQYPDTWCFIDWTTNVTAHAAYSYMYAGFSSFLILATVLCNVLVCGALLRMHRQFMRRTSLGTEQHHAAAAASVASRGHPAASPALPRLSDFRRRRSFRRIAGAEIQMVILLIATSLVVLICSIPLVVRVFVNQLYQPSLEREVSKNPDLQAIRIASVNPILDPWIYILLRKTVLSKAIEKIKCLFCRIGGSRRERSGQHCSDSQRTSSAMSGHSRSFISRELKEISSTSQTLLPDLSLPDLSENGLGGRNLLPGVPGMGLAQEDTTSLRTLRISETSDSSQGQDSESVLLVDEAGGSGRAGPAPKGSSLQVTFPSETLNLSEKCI
T3 sequence (P35408 whole entry): as above

The Ki is a dissociation constant, usually derived from enzyme kinetics or from competition with a known ligand. For orientation: EC50 means the midpoint of the concentration-response curve. Turning to `CC1(C)C(=O)[C@H](C/C=C\CCCC(=O)O)[C@@H](/C=C/C(O)CCc2ccc3ccccc3c2)[C@@H]1O` (single isomer, unassigned) [drawing 24], the Ki is 16.9 µM at EP2 receptor and 0.111 µM at EP4 receptor. Besides, the EC50 was more than 10 µM on hEP2/Gqs5, 0.0013 µM on hEP4/Gqs5 and 1.02 µM on hEP3A/Gqi5.

In the case of `CC1(C)C(=O)[C@H](C/C=C\CCCC(=O)O)[C@@H](/C=C/C(O)CCc2ccc3ccccc3c2)[C@@H]1O` (single isomer, unassigned) [drawing 23], the Ki on EP2 receptor is more than 10 µM; on EP4 receptor it was 0.014 µM. The EC50 is more than 10 µM at hEP2/Gqs5, 0.00017 µM at hEP4/Gqs5 and 4.02 µM at hEP3A/Gqi5.

As to `CC1(C)C(=O)[C@H](CC#CCCCC(=O)O)[C@@H](/C=C/C(O)CCc2ccc3ccccc3c2)[C@@H]1O` (single isomer, unassigned) [drawing 26], the figures for the EC50 at hEP2/Gqs5 and at hEP4/Gqs5 were more than 10 µM and 0.008 µM, respectively. Affinity at EP4 receptor was put at a Ki of 1.86 µM.

`CC1(C)C(=O)[C@H](CC#CCCCC(=O)O)[C@@H](/C=C/C(O)CCc2ccc3ccccc3c2)[C@@H]1O` (single isomer, unassigned) [drawing 25]: the results for the Ki on EP2 receptor and at EP4 receptor were 36.2 µM and 1.24 µM, respectively. The EC50 on hEP4/Gqs5 is 0.0163 µM; at hEP3A/Gqi5, 1.02 µM.

Take `CC1(C)C(=O)[C@H](C/C=C\CCCC(=O)O)[C@@H](/C=C/C(O)CCc2ccc3ccccc3c2)[C@@H]1O` (stereo partly drawn): the “Dog Max ΔIOP” value in the data set with Beagle dogs [1] came to 2 mm Hg. Besides, the “Dog Max Hyperemia” value in the data set with Beagle dogs [2] turned out to be 1.3. Also, the “Monkey Max ΔIOP” value with cynomolgus monkeys is 8 mm Hg. Moreover, the “Rabbit Max Hyperemia” value with rabbit amounted to 0.1.
